Assay results taken from patent US8889878B2, “Haloalky-substituted amides as insecticides and acaricides” (Bayer CropScience AG, priority 2009, dated 2014).

Experiments:
[1] = logP by HPLC on reverse-phase column (EEC Directive 79/831 Annex V.A8); assay type: physicochemical; details: for logP: HPLC-MS
Description: The logP values reported in the above Tables and Preparation Examples were determined according to EEC Directive 79/831 Annex V.A8 by HPLC (High Performance Liquid Chromatography) on a reverse-phase column (C18). Temperature 43° C.

Musca domestica adults = assay: Musca domestica test (MUSCDO), Example 14; assay type: in vivo; details: application rate 100 ppm, treated sponge, after 2 days
Description: (§1) Musca domestica Test (MUSCDO) • Solvent: dimethyl sulphoxide To prepare an appropriate active ingredient formulation, 10 mg of active ingredient are mixed with 0.5 ml of dimethyl sulphoxide, and the concentrate is diluted with water to the desired concentration. Vessels containing a sponge which has been treated with the active ingredient formulation of the desired concentration are populated with Musca domestica adults. After 2 days, the kill rate in % is determined. 100% means that all flies were killed; 0% means that no flies were killed.

Ctenocephalides felis [2] = assay: Ctenocephalides felis oral (CTECFE), Example 12; assay type: in vivo; details: application rate 100 ppm in citrated cow's blood, after 2 days
Description: (§2) Ctenocephalides felis Oral ([…]) • Solvent: 1 part by weight of dimethyl sulphoxide For the purpose of preparing an appropriate active ingredient formulation, 10 mg of active ingredient are mixed with 0.5 ml of dimethyl sulphoxide. A portion of the concentrate is diluted with citrated cow's blood and the desired concentration is established. About 20 unfed adult fleas (Ctenocephalides felis) are placed into a chamber sealed at the top and bottom with gauze. A metal cylinder with its lower end sealed with Parafilm is placed onto the chamber. The cylinder contains the blood-active ingredient preparation, which can be consumed by the fleas through the Parafilm membrane. After 2 days, the kill rate in % is determined. 100% means that all fleas were killed; 0% means that no fleas were killed.

Boophilus microplus [3] = assay: Boophilus microplus test (BOOPMI injection), Example 11; assay type: in vivo; details: application rate 20 μg/animal, injected into abdomen, after 7 days
Summary of the method: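 Efficacy rated from fertile egg laying: 100% means none of the ticks laid fertile eggs, read after 7 days. Compound, dissolved and diluted in DMSO, was delivered by abdominal injection, and ticks were kept in dishes under climate control.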

[4] = system: green peach aphid (Myzus persicae); assay: Myzus test (MYZUPE spray treatment), Example 17; assay type: in vivo; details: china cabbage leaf discs sprayed, after 6 days
Summary of the method: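 Efficacy recorded at 6 days as % kill, where 100% means every aphid dead and 0% none. Spray applied to Brassica pekinensis leaf discs bearing mixed-stage aphids; active ingredient dissolved in acetone with dimethylformamide and emulsifier, then diluted with emulsifier-containing water.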

Boophilus microplus [5] = assay: Boophilus microplus test (BOOPMI injection), Example 1; assay type: in vivo; details: application rate 20 μg/animal, injected into abdomen, after 7 days
Summary of the method: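 Compound in DMSO, diluted with water, injected into the abdomen of engorged ticks, which were then held in a climate-controlled room. Efficacy was scored after 7 days from fertile egg laying, with 100% meaning no tick laid fertile eggs.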

Lucilia cuprina larvae = assay: Lucilia cuprina test (LUCICU), Example 3; assay type: in vivo; details: application rate 20 ppm, treated horsemeat, after 2 days
Description: as §1, with “Lucilia cuprina” for “Musca domestica”, “(LUCICU)” for “(MUSCDO)”, “an” for “an appropriate”, “horsemeat” for “a sponge”, “Lucilia cuprina larvae.” for “Musca domestica adults.”, “larvae” for “flies”

[6] = system: mustard beetle (Phaedon cochleariae); assay: Phaedon test (PHAECO spray treatment), Example 7; assay type: in vivo; details: application rate 20 g/ha, china cabbage leaf discs sprayed, after 7 days
Summary of the method: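 Spray formulation (acetone/DMF with alkylaryl polyglycol ether, diluted in emulsifier-containing water) applied to Chinese cabbage leaf discs, which were dried and then stocked with mustard beetle larvae. Efficacy scored at 7 days as % larvae killed (100% all, 0% none).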

Ctenocephalides felis [7] = assay: Ctenocephalides felis oral (CTECFE), Example 2; assay type: in vivo; details: application rate 20 ppm in citrated cow's blood, after 2 days
Description: as §2, with “an” for “an appropriate”, “concentrate was” for “concentrate is”, “concentration was prepared.” for “concentration is established. About”

[8] = system: armyworm (Spodoptera frugiperda); assay: Spodoptera frugiperda test (SPODFR spray treatment), Example 6; assay type: in vivo; details: application rate 20 g/ha, maize leaf discs sprayed, after 7 days
Description: Spodoptera frugiperda Test (SPODFR Spray Treatment)
(§3) • Solvent: 78.0 parts by weight of acetone • 1.5 parts by weight of dimethylformamide • Emulsifier: 0.5 part by weight of alkylaryl polyglycol ether
To prepare an active ingredient formulation, 1 part by weight of active ingredient was mixed with the stated amounts of solvent and emulsifier, and the concentrate was diluted with emulsifier-containing water to the desired concentration. Leaf discs from maize (Zea mays) are sprayed with an active ingredient formulation of the desired concentration and, after drying, populated with caterpillars of the armyworm (Spodoptera frugiperda).
After 7 days, the efficacy in % is determined. 100% means that all caterpillars were killed; 0% means that no caterpillars were killed.

[9] = system: red spider mite (Tetranychus urticae); assay: Tetranychus test, OP-resistant (TETRUR spray treatment), Example 8; assay type: in vivo; details: application rate 20 g/ha, common bean leaf discs sprayed, after 6 days
Summary of the method: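 Bean (Phaseolus vulgaris) leaf discs carrying all stages of OP-resistant Tetranychus urticae sprayed with compound in acetone/DMF with emulsifier, diluted in water to the test concentration. Mortality scored after 6 days as % efficacy (100% = all mites killed).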

[10] = system: green peach aphid (Myzus persicae); assay: Myzus test (MYZUPE spray treatment), Example 5; assay type: in vivo; details: application rate 20 g/ha, china cabbage leaf discs sprayed, after 6 days
Description: Myzus Test (MYZUPE Spray Treatment)
• Solvent: 78 parts by weight of acetone • 1.5 parts by weight of dimethylformamide • Emulsifier: 0.5 part by weight of alkylaryl polyglycol ether
To prepare an active ingredient formulation, 1 part by weight of active ingredient is mixed with the stated amounts of solvent and emulsifier, and the concentrate is diluted with emulsifier-containing water to the desired concentration. Leaf discs from china cabbage (Brassica pekinensis) infested by all stages of the green peach aphid (Myzus persicae) are sprayed with an active ingredient formulation of the desired concentration.
After 6 days, the efficacy in % is determined. 100% means that all aphids were killed; 0% means that no aphids were killed.

[11] = system: armyworm (Spodoptera frugiperda); assay: Spodoptera frugiperda test (SPODFR spray treatment), Example 15; assay type: in vivo; details: Spodoptera frugiperda, foliar, 168 h; application rate 500 g/ha, maize leaf discs sprayed, after 7 days; read-out: efficacy in %
Summary of the method: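 Caterpillars placed on dried, sprayed Zea mays leaf discs; formulation of acetone, dimethylformamide and emulsifier diluted with emulsifier-containing water to test concentration. Percent kill scored on day 7.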

[12] = system: mustard beetle (Phaedon cochleariae); assay: Phaedon test (PHAECO spray treatment), Example 16; assay type: in vivo; details: Phaedon cochleariae, foliar; application rate 500 g/ha, china cabbage leaf discs sprayed, after the desired time; read-out: efficacy in %
Summary of the method: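 Chinese cabbage leaf discs sprayed with acetone/DMF-emulsifier formulation of active ingredient diluted in emulsifier-containing water, then infested with mustard beetle larvae after drying. Efficacy scored as % larval kill (100% = all killed, 0% = none) after the chosen time.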

[13] = system: red spider mite (Tetranychus urticae); assay: Tetranychus test; OP-resistant (TETRUR spray treatment), Example 18; assay type: in vivo; details: Tetranychus urticae, foliar, 144 h; application rate 500 g/ha, common bean leaf discs sprayed, after 6 days; read-out: efficacy in %
Description: Tetranychus Test; OP-Resistant (TETRUR Spray Treatment)
as §3
To prepare an appropriate active ingredient formulation, 1 part by weight of active ingredient is mixed with the stated amounts of solvent and emulsifier, and the concentrate is diluted with emulsifier-containing water to the desired concentration. Leaf discs from the common bean (Phaseolus vulgaris) infested by all stages of the red spider mite (Tetranychus urticae) are sprayed with an active ingredient formulation of the desired concentration.
After 6 days, the efficacy in % is determined. 100% means that all spider mites were killed; 0% means that no spider mites were killed.

[14] = system: Boophilus microplus females of the SP-resistant Parkhurst strain; assay: Boophilus microplus test (DIP), Example 10; assay type: in vivo; details: application rate 100 ppm, after 7 days
Description: Boophilus microplus Test (DIP)
Test animals: adult engorged Boophilus microplus females of the SP-resistant Parkhurst strain • Solvent: dimethyl sulphoxide
10 mg of active ingredient are dissolved in 0.5 ml of dimethyl sulphoxide. For the purpose of preparing a suitable formulation, the active ingredient solution is diluted with water to the concentration desired in each case.
This active ingredient formulation is pipetted into tubes. 8-10 ticks are transferred into a further tube with holes. The tube is immersed into the active ingredient formulation, and all ticks are completely wetted. After the liquid has run out, the ticks are transferred onto filter discs in plastic dishes and stored in a climate-controlled room. The efficacy is assessed after 7 days by the number of fertile eggs laid. Eggs whose fertility is not outwardly visible are stored in glass tubes in a climate-controlled cabinet until the larvae hatch. Efficacy of 100% means that none of the ticks has laid any fertile eggs.

[15] = system: Tick nymphs (Amblyomma hebraeum); assay: Amblyomma hebaraeum test (AMBYHE), Example 9; assay type: in vivo; details: application rate 100 ppm, immersed one minute, after 42 days
Description: Amblyomma hebaraeum Test (AMBYHE) • Solvent: dimethyl sulphoxide To prepare an appropriate active ingredient formulation, 10 mg of active ingredient are mixed with 0.5 ml of dimethyl sulphoxide, and the concentrate is diluted with water to the desired concentration. Tick nymphs (Amblyomma hebraeum) are placed into perforated plastic cups and immersed in the desired concentration for one minute. The ticks are transferred onto filter papers in a Petri dish and stored in a climate-controlled cabinet. After 42 days, the kill rate in % is determined. 100% means that all ticks were killed; 0% means that no ticks were killed.

Row | SMILES | logP [1] | efficacy in % (fertile eggs laid) (Boophilus microplus [3]) [%] | efficacy in % [6] [%] | efficacy in % [8] [%] | efficacy in % [9] [%] | efficacy in % [10] [%] | other results
1 | Cc1cc(/C=C/C(=O)NC(c2cccc(C(F)(F)F)c2)C(F)(F)F)ccc1C(=O)NCC(F)(F)F (centres unmarked) [Ia-18] | HPLC-MS: logP = 3.56; mass | 100 |  |  |  |  | kill rate in % (efficacy) (Musca domestica adults): 90%; kill rate in % (efficacy) (Ctenocephalides felis [2]): 98%
2 | O=C(/C=C/c1ccc(C(=O)NC2CC2)c(C(F)(F)F)c1)NC(c1cccc(C(F)(F)F)c1)C(F)(F)F (centres unmarked) [Ia-23] | HPLC-MS: logP = 3.18; mass | 100 | 100 | 83 |  |  | efficacy in % ([4]; application rate 500 g/ha): 100%; efficacy in % (fertile eggs laid) (Boophilus microplus [5]): 100%; kill rate in % (efficacy) (Lucilia cuprina larvae): 100%; kill rate in % (efficacy) (Musca domestica adults): 100%; kill rate in % (efficacy) (Ctenocephalides felis [7]): 100%
3 | O=C(/C=C/c1ccc(C(=O)NCc2ccccn2)c(Br)c1)NC(c1cccc(C(F)(F)F)c1)C(F)(F)F (centres unmarked) [Ia-41] | HPLC-MS: logP = 2.76; mass | 100 | 100 |  | 100 | 100 | efficacy in % ([4]; application rate 500 g/ha): 90%; efficacy in % (fertile eggs laid) (Boophilus microplus [5]): 100%; kill rate in % (efficacy) (Lucilia cuprina larvae): 90%; kill rate in % (efficacy) (Ctenocephalides felis [7]): 100%
4 | O=C(/C=C/c1ccc(C(=O)Nc2ccccn2)c(C(F)(F)F)c1)NC(c1cccc(C(F)(F)F)c1)C(F)(F)F (centres unmarked) [Ia-54] | HPLC-MS: logP = 3.58; mass | 100 | 100 | 100 | 100 |  | kill rate in % (efficacy) (Ctenocephalides felis [2]): 95%
5 | O=C(/C=C/c1ccc(C(=O)Nc2ccc(Cl)nc2)c(C(F)(F)F)c1)NC(c1cccc(C(F)(F)F)c1)C(F)(F)F (centres unmarked) [Ia-72] | HPLC-MS: logP = 3.73; mass |  | 100 | 83 |  |  | 
6 | CC(CF)NC(=O)c1ccc(/C=C/C(=O)NC(c2cccc(C(F)(F)F)c2)C(F)(F)F)cc1C(F)(F)F (centres unmarked) [Ia-75, N-(1-Fluoropropan-2-yl)-4-[(1E)-3-oxo-3-({2,2,2-trifluoro-1-[3-(trifluoromethyl)phenyl]-ethyl}amino)prop-1-en-1-yl]-2-(trifluoromethyl)benzamide] |  |  | 100 |  | 100 | 80 | chromatographic logP ([1]; reverse-phase C18 HPLC column, pH 2.7, HPLC, C18 reverse phase, 43° C., acidic range pH 2.7, calibration with alkan-2-ones): 3.37; pest or weed control at 500 g/ha [11]: 100%; pest or weed control at 500 g/ha [12]: 100%; pest or weed control at 500 g/ha [13]: 100%; pest or weed control at 0.02 mg (Boophilus microplus [3]; Rhipicephalus microplus, 168 h, read-out: efficacy in % (fertile eggs laid)): 100%
7 | O=C(/C=C/c1ccc(C(=O)Nc2ccccn2)c(C(F)(F)F)c1)NC(c1cc(Cl)cc(C(F)(F)F)c1)C(F)(F)F (centres unmarked) [Ia-82] | HPLC-MS: logP = 4.32; mass | 100 | 100 | 83 |  |  | 
8 | CC(CF)NC(=O)c1ccc(/C=C/C(=O)NC(c2cccc(C(F)(F)F)c2)C(F)(F)F)cc1Cl (centres unmarked) [Ia-112] | HPLC-MS: logP = 3.25 mass | 100 | 100 |  | 100 | 100 | efficacy in % (fertile eggs laid) [14]: 100%
9 | Cc1cc(/C=C/C(=O)NC(c2cccc(C(F)(F)F)c2)C(F)(F)F)ccc1C(=O)NCCC1CC1 (centres unmarked) [Ia-115] | HPLC-MS: logP = 3.61 mass |  | 100 |  | 90 | 90 | efficacy in % ([4]; application rate 100 g/ha): 100%
10 | O=C(/C=C/c1ccc(C(=O)NC2CCC2)c(Cl)c1)NC(c1cccc(C(F)(F)F)c1)C(F)(F)F (centres unmarked) [Ia-162] | HPLC-MS: logP = 3.59; mass | 100 |  |  |  |  | efficacy in % ([4]; application rate 100 g/ha): 100%; kill rate in % (efficacy) [15]: 100%; efficacy in % (fertile eggs laid) [14]: 100%
